One experiment relates to NCI-H2347. The experiment in a line: Combinatorial activity in LUAD cell line NCI-H2347. In kind it is cell-based. The settings on record: Homo sapiens; NCI-H2347, KRAS L19F; single agent; read-out: (nM) s.a. The protocol:
(§1) Combinatorial activity of PF-07104091 and PF-07220060 was assessed in LUADs as single agents (s.a.) or in combination.

The subject of a further experiment is ST941 PBR PDX model. The experiment in a line: In vivo efficacy, palbociclib-resistant ST941 PBR PDX model (Example 3). Further details: species or system NSG mice. To be noted: ST941PBR, Day 28; PO BID: PF-07104091 150 mpk, PF-07220060 60 mpk, palbociclib 10 mpk; fulvestrant 10 mpk SC 2x week 1 then weekly. The protocol: (§2) Female NSG mice (Jackson Lab) were subcutaneously implanted with fragment (27 mm^3 to 64 mm^3 size) into the dorsal region. All mice for T47D, HCC1428 and ST941 PBR studies were supplemented with 8.5 μg/mL estradiol water (β-Estradiol Sigma-Aldrich, cat #E2758-5G) and gave ad libitum till end of study. For the in vivo efficacy studies, tumor volume and body weights were measured twice a week. Tumor volume was calculated using the [(Length×Width×Width)/2)] formula. TGI was calculated as 100*(1−ΔT/ΔC). The ΔC (ΔT) was obtained by subtracting the mean tumor burden in the vehicle (treated) group on the first day of treatment (Day 0) from the mean tumor burden in vehicle (treated) group on the assessment day. Statistical analysis was performed using ANCOVA when the mean tumor volume in vehicle treated mice reached tumor cutoff size.
We established model in house by continuous treatment of the ST941 PBR tumor bearing mice with PD-0332991 at 50 mg/kg, PO QD plus fulvestrant at 10 mg/kg, SC twice in the first week, then weekly thereafter. To propagate donors for the TGI study, tumors were transplanted to recipient mice. One week after the re-implantation, the recipient mice received continuous treatment with palbociclib plus fulvestrant (dosing schedule described above). After 1 to 2 serial in vivo propagation with the same treatment regimen, the resistant tumors in the range of 700 to 800 mm^3 were re-implanted for a study expansion. The remaining tumor fragments were viably frozen for future use.
The live donor mice were established by implanting ST941 PBR (p11) tumor fragments. Once reaching a range of 700 to 800 mm^3, the donor tumors were subsequently transplanted into secondary recipient mice for a study expansion. To maintain the resistant clones, the ST941 PBR tumor bearing mice were treated with PD-0332991 at 50 mg/kg, PO. QD plus fulvestrant at 10 mg/kg, SC twice in the first week, then weekly afterwards for 10 weeks. The treatment was initiated one week after the implant until day of randomization for study enrollment. […] TGI was assessed on Day 28 post first dose.

In a further experiment the test system is NCI-2291. The experiment in a line: Combinatorial activity in LUAD cell line NCI-2291. In kind it is cell-based. The settings on record: NCI-2291, KRAS G12C/F/V; single agent; read-out: (nM) s.a. As to the method:
as §1

The subject of the next experiment is MCF7 breast cancer model. The experiment in a line: In vivo efficacy, HR+/HER2− MCF7 breast cancer model (Example 4). Further details: species or system NSG mice. The settings on record: MCF7, Day 29; PO BID: PF-07104091 120 mpk, PF-07220060 60 mpk, PF-06873600 30 mpk, palbociclib 10 mpk; fulvestrant 10 mpk SC. The protocol:
as §2, with “HCC1428, MCF7” for “T47D, HCC1428”
The MCF7 model was established by implanting donor tumor fragments into recipient mice. To establish the MCF7 donor mice, tumor cells (5×10^6 cell/mouse with 50% Cultrex® Basement Membrane Matrix) were subcutaneously implanted in female NSG mice. Once reaching a range of 700 to 800 mm^3, donor tumors were subsequently transplanted into secondary recipient mice for a study expansion. […] PF-07104091 (lot 022), PF-07220060 (lot CPo126812-01-SY-5700-01), PF-06873600 (lot 022) and PD-0332991 (lot GR08498) were administered (PO) BID (7 hr apart) while fulvestrant (lot 20160224-2) at 10 mg/kg, SC twice in the first week, then weekly afterwards. All mice received treatment continuously until Day 29. TGI was assessed on Day 29 post first dose

Another experiment has as its system NCIH2228 (RB mut). The experiment in a line: Combinatorial activity in LUAD cell line NCIH2228. To be noted: Homo sapiens, NCI-H2228, WT, single agent, read-out: (nM) s.a. The experiment is classed as cell-based. The protocol:
as §1

The next experiment has as its system CALU6. The experiment in a line: Combinatorial activity in LUAD cell line CALU6. In kind it is cell-based. The settings on record: Homo sapiens, Calu-6; CALU6, WT; single agent; read-out: (nM) s.a. As to the method: as §1
Another experiment concerns NCIH1944. The experiment in a line: Combinatorial activity in LUAD cell line NCIH1944. In kind it is cell-based. The settings on record: Homo sapiens, NCI-H1944; NCIH1944, KRAS G13D; single agent; read-out: (nM) s.a. The protocol:
as §1

In the next experiment the test system is A549. Kind of experiment: Combinatorial activity in LUAD cell line A549. In kind it is cell-based. To be noted: Homo sapiens; A549, WT; single agent; read-out: (nM) s.a. The protocol:
as §1

The test system of another experiment is H1373. The experiment in a line: Combinatorial activity in LUAD cell line H1373. In kind it is cell-based. To be noted: Homo sapiens, NCI-H1373; H1373, KRAS G12C; single agent; read-out: (nM) s.a. As to the method:
as §1

The subject of a further experiment is H358. The experiment in a line: Combinatorial activity in LUAD cell line H358. The experiment is classed as cell-based. To be noted: Homo sapiens, NCI-H358; H358, KRAS G12C; single agent; read-out: (nM) s.a. As to the method: as §1
Another experiment has as its system H1792. The experiment in a line: Combinatorial activity in LUAD cell line H1792. In kind it is cell-based. The settings on record: Homo sapiens, NCI-H1792; H1792, KRAS G12C; single agent; read-out: (nM) s.a. The protocol:
as §1

Another experiment concerns H23. The experiment in a line: Combinatorial activity in LUAD cell line H23. In kind it is cell-based. To be noted: Homo sapiens, NCI-H23; H23, KRAS G12C; single agent; read-out: (nM) s.a. The protocol:
as §1

These results are taken from patent publication US20250041277A1, “METHODS AND DOSING REGIMENS COMPRISING A CDK2 INHIBITOR AND A CDK4 INHIBITOR FOR TREATING CANCER” (PFIZER INC., priority 2021, published 2025).

Several values for one entry are separate records, joined by “and”; a condition that tells them apart may be missing. Equal values may be shown once.

As to `COCc1cc(C(=O)Nc2cc([C@H]3CC[C@@H](OC(=O)NC(C)C)C3)[nH]n2)n(C)n1` [PF-07104091, (1R,3S)-3-[3-({[3-(methoxymethyl)-1-methyl-1H-pyrazol-5-yl]carbonyl}amino)-1H-pyrazol-5-yl]cyclopentyl propan-2-ylcarbamate], the IC50 is 364 nM with NCI-H2347; approximately 1200 nM in the experiment with NCI-2291; approximately 1000 nM in the experiment on NCIH2228 (RB mut); 268 nM with CALU6; 227 nM in the experiment on NCIH1944; 574 nM in the experiment on A549. For the same compound, the TGI % with ST941 PBR PDX model is 34% and 24^* %; in the experiment with MCF7 breast cancer model it was 60%.

`CC(C)n1c(C(C)(C)O)nc2c(F)cc(-c3nc(N[C@@H]4CCOC[C@H]4O)ncc3Cl)cc21` [PF-07220060, 1,5-anhydro-3-({5-chloro-4-[4-fluoro-2-(2-hydroxypropan-2-yl)-1-(propan-2-yl)-1H-benzimidazol-6-yl]pyrimidin-2-yl}amino)-2,3-dideoxy-D-threo-pentitol]: the IC50 with H1373 was determined as 470 nM; with NCI-H2347, 70 nM; in the experiment with H358, 120 nM; in the experiment on NCI-2291 it was 138 nM; with H1792 it was 210 nM; in the experiment on NCIH2228 (RB mut) it was 839 nM. Further, the IC50 in the experiment with CALU6 was determined as 155 nM; in the experiment on H23 it was 285 nM; in the experiment on NCIH1944 it was 398 nM; with A549, 814 nM. Further, the TGI % worked out at 28% with ST941 PBR PDX model and 79% in the experiment on MCF7 breast cancer model.
